PubChem BioAssay (NCI)
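How tested: cells in 96-well plates exposed to compound for 48 hours at five concentrations. TGI: concentration producing complete growth inhibition.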

Experiments:
Assay in all cases: NCI tumour cell line growth inhibition, 48 h
CCRF-CEM leukemia = test system: CCRF-CEM leukemia
HCT-15 colon = test system: HCT-15 colon
HOP-92 NSCLC = test system: HOP-92 NSCLC
IGROV1 ovarian = test system: IGROV1 ovarian
K-562 leukemia = test system: K-562 leukemia
LOX IMVI melanoma = test system: LOX IMVI melanoma
M14 melanoma = test system: M14 melanoma
MALME-3M melanoma = test system: MALME-3M melanoma
MDA-MB-231 breast = test system: MDA-MB-231 breast
NCI-H226 lung = test system: NCI-H226 lung
NCI-H460 lung = test system: NCI-H460 lung
OVCAR-4 ovarian = test system: OVCAR-4 ovarian
OVCAR-5 ovarian = test system: OVCAR-5 ovarian
RXF 393 renal = test system: RXF 393 renal
SK-MEL-5 melanoma = test system: SK-MEL-5 melanoma
SK-OV-3 ovarian = test system: SK-OV-3 ovarian
SN12C renal = test system: SN12C renal
SW-620 colon = test system: SW-620 colon
TK-10 renal = test system: TK-10 renal
UACC-257 melanoma = test system: UACC-257 melanoma

Row | SMILES | TGI (CCRF-CEM leukemia) | TGI (HCT-15 colon) | TGI (HOP-92 NSCLC) | TGI (IGROV1 ovarian) | TGI (K-562 leukemia) | TGI (LOX IMVI melanoma) | TGI (M14 melanoma) | TGI (MALME-3M melanoma) | TGI (MDA-MB-231 breast) | TGI (NCI-H226 lung) | TGI (NCI-H460 lung) | TGI (OVCAR-4 ovarian) | TGI (OVCAR-5 ovarian) | TGI (RXF 393 renal) | TGI (SK-MEL-5 melanoma) | TGI (SK-OV-3 ovarian) | TGI (SN12C renal) | TGI (SW-620 colon) | TGI (TK-10 renal) | TGI (UACC-257 melanoma)
1 | Nc1nc(I)nc2c1ncn2C1OC(COS(N)(=O)=O)C(O)C1O (stereo unspecified) | 0.0268 µM | 0.305 µM | 0.0464 µM | 0.0401 µM | 0.37 µM | 0.0251 µM | 0.028 µM | < 0.01 µM | < 0.0238 µM | < 0.0159 µM | 0.108 µM | < 0.0158 µM | 0.0189 µM | 0.0441 µM | < 0.0113 µM | 0.0458 µM | 0.032 µM | 0.165 µM | 0.071 µM | 0.0716 µM
2 | O=C1CN(C(=O)C2CCCN2C(=O)C2CCCN2)C(=O)CN1 (stereo unspecified) | > 100 µM | > 100 µM | > 100 µM | > 100 µM | > 100 µM | > 100 µM | > 100 µM | > 100 µM | > 100 µM | > 100 µM | > 100 µM | > 100 µM | > 100 µM | > 100 µM | > 100 µM | > 100 µM | > 100 µM | > 100 µM | > 100 µM | 
3 | O=S(=O)(SC1=NCCN1)c1ccc2ccccc2c1 | 68 µM | 71 µM | > 100 µM | > 100 µM | 55 µM | > 100 µM | 63.6 µM | > 100 µM | 42.9 µM | 98 µM | 42.8 µM | > 100 µM | 49.6 µM | > 100 µM | 64.5 µM | 54.7 µM | 68.9 µM | 43.6 µM | > 100 µM | > 100 µM
4 | COc1ccc(C(=O)c2sc(N(C)C)nc2-c2ccccc2)cc1 | 65.2 µM | > 100 µM | > 100 µM | > 100 µM | > 100 µM | > 100 µM | > 100 µM | > 100 µM | > 100 µM | > 100 µM | 52.9 µM | > 100 µM | > 100 µM | > 100 µM | > 100 µM | 71.8 µM | > 100 µM | > 100 µM | > 100 µM | 86.1 µM
5 | CC(=O)N(C(C)=O)n1c(Cc2ccc(Cl)cc2)n[nH]c1=O | > 100 µM | > 100 µM | > 100 µM | > 100 µM | > 100 µM | > 100 µM | > 100 µM | > 100 µM | > 100 µM | > 100 µM | > 100 µM | > 100 µM | > 100 µM | > 100 µM | > 100 µM | > 100 µM | > 100 µM | > 100 µM | > 100 µM | > 100 µM
6 | O=C1CSSCC(=O)Nc2ccccc2N1 | > 100 µM | > 100 µM | > 100 µM | > 100 µM | > 100 µM | > 100 µM | > 100 µM | > 100 µM | > 100 µM | > 100 µM | > 100 µM | > 100 µM | > 100 µM | > 100 µM | > 100 µM | > 100 µM | > 100 µM | > 100 µM | > 100 µM | > 100 µM
7 | Cc1nc(-c2cc3c(ccc4ccccc43)oc2=O)cs1 | > 100 µM | > 100 µM | 89.5 µM | > 100 µM | > 100 µM | > 100 µM | > 100 µM | > 100 µM | > 100 µM | > 100 µM | > 100 µM | > 100 µM | > 100 µM | > 100 µM | > 100 µM | > 100 µM | > 100 µM | > 100 µM | > 100 µM | > 100 µM
8 | O=C(O)c1ccccc1/C=N/NC1=NCCN1 | > 100 µM | > 100 µM | 91.9 µM | > 100 µM | > 100 µM | > 100 µM | > 100 µM | > 100 µM | > 100 µM | > 100 µM | > 100 µM | > 100 µM | > 100 µM | > 100 µM | > 100 µM | > 100 µM |  | > 100 µM | > 100 µM | > 100 µM
9 | Ic1ccc2c(c1)N(c1ccccc1)c1cc(N=c3ccc4nc5ccc(I)cc5n(-c5ccccc5)c-4c3)ccc1N2 | > 100 µM | > 100 µM | > 100 µM | > 100 µM | > 100 µM |  | 80.1 µM | > 100 µM | > 100 µM | > 100 µM | > 100 µM | > 100 µM | > 100 µM | > 100 µM | > 100 µM | > 100 µM | > 100 µM | > 100 µM | > 100 µM | > 100 µM
10 | Cc1ccc([N+](=O)[O-])cc1S(=O)(=O)Nc1ccc(C2=NN(c3ccc([N+](=O)[O-])cc3[N+](=O)[O-])C(c3cccs3)C2)cc1 (stereo unspecified) | > 100 µM | 32.7 µM | 84.6 µM | 53.7 µM | > 100 µM | 39.9 µM | 32.9 µM | 94.7 µM | 50.8 µM | 60.1 µM |  | 77.3 µM | > 100 µM | 54.3 µM | 26.1 µM | 77.9 µM | 34.1 µM | > 100 µM | 81.7 µM | 42.1 µM
